The text below walks through data of US8658661B2, “Oxadiazole inhibitors of leukotriene production” (Boehringer Ingelheim International GmbH, priority 2010, dated 2014).

Assay [1] concerns the target T1, recombinant human FLAP protein (Homo sapiens, UniProt P20292).
T1 construct: made in house; host or cells: Sf9 insect cells (100,000×g membrane pellet used)
T1 sequence (P20292 1-161): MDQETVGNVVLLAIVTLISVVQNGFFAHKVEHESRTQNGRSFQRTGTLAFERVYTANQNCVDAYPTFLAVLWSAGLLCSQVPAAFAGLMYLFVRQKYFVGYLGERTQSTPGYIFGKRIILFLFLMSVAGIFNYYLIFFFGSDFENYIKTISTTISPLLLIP
As to the kind of experiment: FLAP binding assay (SPA, displacement of [125I]L-691,831). Particulars: membranes of sf9 cells expressing recombinant human FLAP; [125I]L-691,831 probe; read-out: FLAP binding IC50. In outline:
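Membranes from sf9 cells expressing human FLAP in pH 7.5 Tris buffer (MgCl2, EDTA, PMSF). Non-specific binding defined with 10 μM cold L-691,831.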

For assay [2], the system named is synthesis of LTB4 in human whole blood. As to the kind of experiment: Human whole blood assay (inhibition of LTB4 synthesis, calcimycin stimulated). Type of assay: cell-based. Particulars: heparinized human whole blood, calcimycin 20 μM, plasma LTB4. The procedure, abridged: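 Heparinized human whole blood was preincubated with compound for 15 min at 37° C, then stimulated with calcimycin (20 μM final, in PBS pH 7.4) for a further 30 min at 37° C. Plasma LTB4 was quantified by antibody-based homogeneous time-resolved fluorescence.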

By IC50 is commonly meant the concentration at which inhibition is half-maximal. As to `CC(C)C(C)(c1ccc(-c2cnc(N)nc2)cc1)c1noc(-c2ccnnc2)n1` (stereo not shown) [Example 147, 5-(4-{3-methyl-2-[5-(pyridazin-4-yl)-1,2,4-oxadiazol-3-yl]butan-2-yl}phenyl)pyrimidin-2-amine], the IC50 amounted to 2.7 nM in assay [1] and 86 nM in assay [2].

On to `CC(C)C(C)(c1ccc(-c2cnc(N)nc2)cc1)c1noc(-c2cccc(S(C)(=O)=O)c2)n1` (stereo not shown) [Example 148, 5-[4-(3-methyl-2-{5-[3-(methylsulfonyl)phenyl]-1,2,4-oxadiazol-3-yl}butan-2-yl)phenyl]pyrimidin-2-amine], for which the half-maximal inhibitory concentration (IC50) in assay [1] was determined as 14 nM; in assay [2] it was 610 nM.

For the compound `CC(C)C(C)(c1ccc(-c2cnc(N)nc2)cc1)c1noc(C2CCN(C)CC2)n1` (stereo not shown) [Example 150, 5-(4-{3-methyl-2-[5-(1-methylpiperidin-4-yl)-1,2,4-oxadiazol-3-yl]butan-2-yl}phenyl)pyrimidin-2-amine], the half-maximal inhibitory concentration (IC50) in assay [1] was found to be 330 nM; in assay [2], 1800 nM.

For `CC(C)C(C)(c1ccc(-c2cnc(N)nc2)cc1)c1noc(-c2ccc(N)nc2)n1` (stereo not shown) [Example 151, 5-(4-{2-[5-(6-aminopyridin-3-yl)-1,2,4-oxadiazol-3-yl]-3-methylbutan-2-yl}phenyl)pyrimidin-2-amine], the 50% inhibitory concentration (IC50) in assay [1] turned out to be 2.3 nM; in assay [2] it was 100 nM.

With `Cc1ncc(-c2nc(C(C)(c3ccc(-c4cnc(N)nc4)cc3)C(C)C)no2)cn1` (stereo not shown) [Example 152, 5-(4-{3-methyl-2-[5-(2-methylpyrimidin-5-yl)-1,2,4-oxadiazol-3-yl]butan-2-yl}phenyl)pyrimidin-2-amine], the 50% inhibitory concentration (IC50) in assay [1] is 3.3 nM; in assay [2] it was 270 nM.

As to `Cc1nc(C)c(-c2nc(C(C)(c3ccc(-c4cnc(N)nc4)cc3)C(C)C)no2)s1` (stereo not shown) [Example 153, 5-(4-{2-[5-(2,4-dimethyl-1,3-thiazol-5-yl)-1,2,4-oxadiazol-3-yl]-3-methylbutan-2-yl}phenyl)pyrimidin-2-amine], the results for the IC50 in assay [1] and in assay [2] were 4.6 nM and 180 nM, respectively.

As to `COc1ncc(-c2nc(C(C)(c3ccc(-c4cnc(N)nc4)cc3)C(C)C)no2)cn1` (stereo not shown) [Example 155, 5-(4-{2-[5-(2-methoxypyrimidin-5-yl)-1,2,4-oxadiazol-3-yl]-3-methylbutan-2-yl}phenyl)pyrimidin-2-amine], the concentration for half-maximal inhibition (IC50) came out at 1.9 nM in assay [1] and 81 nM in assay [2].

Turning to `Cc1ccc(-c2nc(C(C)(c3ccc(-c4cnc(N)nc4)cc3)C(C)C)no2)c(O)n1` (stereo not shown) [Example 157, 3-(3-{2-[4-(2-aminopyrimidin-5-yl)phenyl]-3-methylbutan-2-yl}-1,2,4-oxadiazol-5-yl)-6-methylpyridin-2-ol], the results for the half-maximal inhibitory concentration (IC50) in assay [1] and in assay [2] were 3.3 nM and 760 nM, respectively.

As for `COCCn1cc(-c2nc(C(C)(c3ccc(-c4cnc(N)nc4)cc3)C(C)C)no2)cn1` (stereo not shown) [Example 158, 5-[4-(2-{5-[1-(2-methoxyethyl)-1H-pyrazol-4-yl]-1,2,4-oxadiazol-3-yl}-3-methylbutan-2-yl)phenyl]pyrimidin-2-amine], the half-inhibitory concentration (IC50) in assay [1] is 3.4 nM; in assay [2] it was 55 nM.

Consider `CC(C)C(C)(c1ccc(-c2cnc(N)nc2)cc1)c1noc(-c2cnn(CC(C)(C)O)c2)n1` (stereo not shown) [Example 159, 1-[4-(3-{2-[4-(2-aminopyrimidin-5-yl)phenyl]-3-methylbutan-2-yl}-1,2,4-oxadiazol-5-yl)-1H-pyrazol-1-yl]-2-methylpropan-2-ol], for which the concentration for half-maximal inhibition (IC50) in assay [1] came to 4.6 nM; in assay [2] it was 83 nM.

Consider `CC(C)C(C)(c1ccc(-c2cnc(N)nc2)cc1)c1noc(-c2cnn(C(C)(C)C(=O)O)c2)n1` (stereo not shown) [Example 160, 2-[4-(3-{2-[4-(2-aminopyrimidin-5-yl)phenyl]-3-methylbutan-2-yl}-1,2,4-oxadiazol-5-yl)-1H-pyrazol-1-yl]-2-methylpropanoic acid], for which the IC50 in assay [1] was 9 nM; in assay [2], more than 5000 nM.

With `CC(C)C(C)(c1ccc(-c2cnc(N)nc2)cc1)c1noc(-c2cnn(C3COC3)c2)n1` (stereo not shown) [Example 161, 5-[4-(3-methyl-2-{5-[1-(oxetan-3-yl)-1H-pyrazol-4-yl]-1,2,4-oxadiazol-3-yl}butan-2-yl)phenyl]pyrimidin-2-amine], the IC50 in assay [1] was 2 nM; in assay [2], 36 nM.

For the compound `COCCNc1cnc(-c2nc(C(C)(c3ccc(-c4cnc(N)nc4)cc3)C(C)C)no2)cn1` (stereo not shown) [Example 162, 5-{4-[2-(5-{5-[(2-methoxyethyl)amino]pyrazin-2-yl}-1,2,4-oxadiazol-3-yl)-3-methylbutan-2-yl]phenyl}pyrimidin-2-amine], the results for the half-inhibitory concentration (IC50) in assay [1] and in assay [2] were 2.3 nM and 41 nM, respectively.

Consider `CC(C)C(C)(c1ccc(-c2cnc(N)nc2)cc1)c1noc(-c2cnc(N3CCN(C)CC3)cn2)n1` (stereo not shown) [Example 163, 5-[4-(3-methyl-2-{5-[5-(4-methylpiperazin-1-yl)pyrazin-2-yl]-1,2,4-oxadiazol-3-yl}butan-2-yl)phenyl]pyrimidin-2-amine], for which the IC50 in assay [1] turned out to be 0.74 nM; in assay [2], 30 nM.

With `CC(C)C(C)(c1ccc(-c2cnc(N)nc2)cc1)c1noc(-c2cnn(CC(C)(C)C(=O)O)c2)n1` (stereo not shown) [Example 164, 3-[4-(3-{2-[4-(2-aminopyrimidin-5-yl)phenyl]-3-methylbutan-2-yl}-1,2,4-oxadiazol-5-yl)-1H-pyrazol-1-yl]-2,2-dimethylpropanoic acid], the concentration for half-maximal inhibition (IC50) in assay [1] was found to be 1.4 nM; in assay [2], 2700 nM.

For `CC(C)C(C)(c1ccc(-c2cnc(N)nc2)cc1)c1noc(-c2cccc(=O)n2C)n1` (stereo not shown) [Example 165, 6-(3-{2-[4-(2-aminopyrimidin-5-yl)phenyl]-3-methylbutan-2-yl}-1,2,4-oxadiazol-5-yl)-1-methylpyridin-2(1H)-one], the IC50 in assay [1] was 2.1 nM; in assay [2], 89 nM.

As for `CC(C)C(C)(c1ccc(-c2cnc(N)nc2)cc1)c1noc(C2CCCC(=O)N2C)n1` (stereo not shown) [Example 166, 6-(3-{2-[4-(2-aminopyrimidin-5-yl)phenyl]-3-methylbutan-2-yl}-1,2,4-oxadiazol-5-yl)-1-methylpiperidin-2-one], the figures for the IC50 in assay [1] and in assay [2] were 26 nM and 2400 nM, respectively.

In the case of `CC(C)C(C)(c1ccc(-c2cnc(N)nc2)cc1)c1noc(C2CCCC(=O)N2)n1` (stereo not shown) [Example 167, 6-(3-{2-[4-(2-aminopyrimidin-5-yl)phenyl]-3-methylbutan-2-yl}-1,2,4-oxadiazol-5-yl)piperidin-2-one], the figures for the IC50 in assay [1] and in assay [2] were 46 nM and 4300 nM, respectively.

For `CC(C)C(C)(c1ccc(-c2cnc(N)nc2)cc1)c1noc(N2CCS(=O)(=O)CC2)n1` (stereo not shown) [Example 168, 5-(4-{1-[5-(1,1-Dioxo-1lambda6-thiomorpholin-4-yl)-[1,2,4]oxadiazol-3-yl]-1,2-dimethyl-propyl}-phenyl)-pyrimidin-2-ylamine], the 50% inhibitory concentration (IC50) is 21 nM in assay [1] and 390 nM in assay [2].

Consider `CC(=O)N1CCN(c2nc(C(C)(c3ccc(-c4cnc(N)nc4)cc3)C(C)C)no2)CC1` (stereo not shown) [Example 169, 1-[4-(3-{1-[4-(2-Amino-pyrimidin-5-yl)-phenyl]-1,2-dimethyl-propyl}-[1,2,4]oxadiazol-5-yl)-piperazin-1-yl]-ethanone], for which the IC50 was 14 nM in assay [1] and 370 nM in assay [2].

As for `CC(C)C(C)(c1ccc(-c2cnc(N)nc2)cc1)c1noc(N2CCN(S(C)(=O)=O)CC2)n1` (stereo not shown) [Example 170, 5-(4-{1-[5-(4-Methanesulfonyl-piperazin-1-yl)-[1,2,4]oxadiazol-3-yl]-1,2-dimethyl-propyl}-phenyl)-pyrimidin-2-ylamine], the half-inhibitory concentration (IC50) in assay [1] turned out to be 14 nM; in assay [2] it was 310 nM.

For the compound `CC(C)C(C)(c1ccc(-c2cnc(N)nc2)cc1)c1noc(NCCN(C)C)n1` (stereo not shown) [Example 171, N-(3-{1-[4-(2-Amino-pyrimidin-5-yl)-phenyl]-1,2-dimethyl-propyl}-[1,2,4]oxadiazol-5-yl)-N′,N′-dimethyl-ethane-1,2-diamine], the 50% inhibitory concentration (IC50) in assay [1] turned out to be 220 nM; in assay [2], 1900 nM.

Turning to `CN(C)C(=O)Cn1cc(-c2nc([C@@](C)(c3ccc(-c4ccc(N)nc4)cc3)C3CC3)no2)cn1` [Example 172, 2-[4-(3-{(R)-1-[4-(6-Amino-pyridin-3-yl)-phenyl]-1-cyclopropyl-ethyl}-[1,2,4]oxadiazol-5-yl)-pyrazol-1-yl]-N,N-dimethyl-acetamide], the figures for the IC50 in assay [1] and in assay [2] were 1.1 nM and 66 nM, respectively.

For `CC(C)(O)Cn1cc(-c2nc([C@@](C)(c3ccc(-c4ccc(N)nc4)cc3)C3CC3)no2)cn1` [Example 173, 1-[4-(3-{(R)-1-[4-(6-Amino-pyridin-3-yl)-phenyl]-1-cyclopropyl-ethyl}-[1,2,4]oxadiazol-5-yl)-pyrazol-1-yl]-2-methyl-propan-2-ol], the results for the 50% inhibitory concentration (IC50) in assay [1] and in assay [2] were 2.4 nM and 31 nM, respectively.

On to `CC(C)(O)Cn1cc(-c2nc([C@@](C)(c3ccc(-c4cnc(N)nc4)cc3)C3CC3)no2)cn1` [Example 174, 1-[4-(3-{(R)-1-[4-(2-Amino-pyrimidin-5-yl)-phenyl]-1-cyclopropyl-ethyl}-[1,2,4]oxadiazol-5-yl)-pyrazol-1-yl]-2-methyl-propan-2-ol], for which the concentration for half-maximal inhibition (IC50) in assay [1] was 1.2 nM; in assay [2], 19 nM.

Regarding `CC(C)(O)Cn1cc(-c2nc([C@@](C)(c3ccc(-c4cnc(N)cn4)cc3)C3CC3)no2)cn1` [Example 175, 1-[4-(3-{(R)-1-[4-(5-Amino-pyrazin-2-yl)-phenyl]-1-cyclopropyl-ethyl}-[1,2,4]oxadiazol-5-yl)-pyrazol-1-yl]-2-methyl-propan-2-ol], the IC50 in assay [1] was 2.2 nM; in assay [2], 39 nM.
